From US20250382250A1, “STILBENE DERIVATIVE AS AHR AGONIST AND USE THEREOF” (NANJING GRITPHARMACO., LTD., priority 2022, published 2025)
Marks after values point to notes of the source that are not given here.

What was measured:
atopic dermatitis = assay: DNFB-induced atopic dermatitis mouse model (AD Score); format: in vivo, BALB/C mice; parameters: scale not given here; conditions: DNFB mice
Procedure: 56 clean-grade BALB/C mice aged 6-8 weeks were subjected to 5 days of adaptive feeding and then randomized into 7 groups of 8 mice each: • A. Blank control group • B. Modeling+solvent group • C. Modeling+blank matrix group • D. Modeling+positive drug mometasone furoate group • E. Modeling+1 wt % of benvitimod group • F. […] The animal experiments were conducted in accordance with the Experimental Animal Feeding, Management and Use Guidelines of China Pharmaceutical University and in compliance with animal study ethics and regulations. As shown in the above procedures, the solvent control or DNFB was given in the morning for modeling; from day 5, the test compound ointment was administered once every afternoon at 50 mg/dose evenly on the skin surface. The specific administration method is as shown above; Specific procedures: […] Severity of atopic dermatitis was scored using the AD Score criteria The severity of the appearance of dermatitis was evaluated based on 4 indicators: A. erythema/bleeding; B. dryness; C. effusion/crusting; D. edema.

IMQ-induced psoriasis = IMQ-induced psoriasis in mice (PASI score); format: in vivo, KM mice; conditions: for PASI score (folds, scales, erythema): IMQ mice, 1.2 wt % in blank matrix, 62.5 mg topical
Procedure: • 1) The efficacy on IMQ-induced psoriasis in mice by compound 6 # was evaluated.
[drawing 91] • 2) Grouping • (1) Petrolatum+blank matrix group, 10 mice; • (2) IMQ+blank matrix group, 10 mice; • (3) IMQ+compound 6 #group (1.2 wt % in blank matrix), 10 mice. • IMQ: imiquimod • 3) Formulation • IMQ: 5% imiquimod (imiquimod was used for inducing psoriasis on the skin of modeling mice) 1.2% compound 6 #formulation was prepared in blank matrix • 4) Animals • Species and strain: SPF-grade KM mice, male • Weight: 35-40 g • Source: SPF (Beijing) Biotechnology Co., Ltd. • Housing conditions: air-conditioned room, with a temperature of 18-26° C. and a relative humidity of 20%-60%. • 5) Procedures
Skin pretreatment: Mice were given free access to water and food. After 5 days of adaptation in the animal room, the hair on the back of the mice within an area of 2 cm×2.5 cm was shaved. The area was treated with a depilatory cream for 30 s-1 min, and then the cream was removed with cotton pads. Randomization: 24 h after depilation, […] by weight: petrolatum+blank matrix group (10 mice); IMQ+blank matrix group (10 mice); IMQ+compound 6 #group (1.2% compound in blank matrix) (10 mice).
Modeling and treatment: 62.5 mg of 5% imiquimod or petrolatum in the morning was administered to the mice in the morning. In the afternoon, 62.5 mg of blank matrix or 1.2% compound 6 # was smeared on the back.
Recording: Before modeling in the morning, the condition of the skin folds, erythema, and scales was observed, scored, and photographed daily, and the mouse PASI score was calculated.

[1] = Ointment diffusion test, ex vivo rabbit skin; format: in vitro ADME; conditions: ointments: 2# 1.2 wt %, 6# 1.2 wt %, benvitimod 1.0 wt %, 32° C.
Procedure: Test compounds: compound 2 #ointment, 1.2 wt %; compound 6 #ointment, 1.2 wt %; benvitimod ointment, 1.0 wt %;
• (1) Preparation of ex vivo rabbit skin • (2) Preparation of receiving liquid: 100 mL of polyethylene glycol 400 solution was brought to a final volume of 250 mL with normal saline. The mixture was mixed well and stored at 4° C. Before each permeation in the receiving compartment, the system was preheated to 32° C. • (3) In vitro transdermal test: A drug transdermal diffusion apparatus was used to fix the processed rabbit skin between the supply and receiving compartments, with the stratum corneum facing the supply compartment. A constant temperature water bath circulation at 32° C. was maintained. The system was equilibrated for 30 min. Upon each replacement of the receiving liquid, the air at the lower layer was exhausted, and the liquid droplets on the skin surface were removed with paper. 0.5 g of the ointment was evenly smeared in the supply compartment. The system was stirred with a magnetic stirring at a rotation speed of 600 r/min. At 0.5, 1, 2, 3, 4, 5, 7, 9, 12, and 24 h, 1 mL of sample liquid was taken out from the receiving compartment and transferred into a liquid phase vial, and simultaneously, an equal amount of fresh receiving liquid at the same temperature was added. The liquid phase detection was conducted to calculate the drug permeation rate.

[2] = day 0, before ointment treatment (from day 5)
[3] = day 4, before ointment treatment (from day 5)
[4] = day 6, ointment 50 mg once daily from day 5 (1.2 wt % 2#/6#, 1 wt % benvitimod)
[5] = day 8, ointment 50 mg once daily from day 5 (1.2 wt % 2#/6#, 1 wt % benvitimod)
[6] = day 10, ointment 50 mg once daily from day 5 (1.2 wt % 2#/6#, 1 wt % benvitimod)

| 24-hour drug permeation rate (rank order) [1] | Compound | Back AD score (atopic dermatitis; [2]) | Back AD score (atopic dermatitis; [3]) | Back AD score (atopic dermatitis; [4]) | Back AD score (atopic dermatitis; [5]) | Back AD score (atopic dermatitis; [6]) | PASI score (folds, scales, erythema) (IMQ-induced psoriasis; Day 1) | PASI score (folds, scales, erythema) (IMQ-induced psoriasis; Day 2) | PASI score (folds, scales, erythema) (IMQ-induced psoriasis; Day 3) | PASI score (folds, scales, erythema) (IMQ-induced psoriasis; Day 4) | PASI score (folds, scales, erythema) (IMQ-induced psoriasis; Day 5) | PASI score (folds, scales, erythema) (IMQ-induced psoriasis; Day 6) | PASI score (folds, scales, erythema) (IMQ-induced psoriasis; Day 7) | therapeutic effect versus IMQ+blank matrix group (IMQ-induced psoriasis; day 7, 1.2 wt % in blank matrix) |
| --- | --- | --- | --- | --- | --- | --- | --- | --- | --- | --- | --- | --- | --- | --- |
| benvitimod >2 #>6 # | Oc1cc(/C=C/c2ccc(F)cc2)cc(O)c1C1CCCCC1 [Compound 6, (E)-2-cyclohexyl-5-(4-fluorostyryl)-1,3-benzenediol] | 0.00 ± 0.00 | 3.50 ± 0.35 | 5.56 ± 1.45 | 6.69 ± 1.64**^a | 5.44 ± 1.13**^aab | 3.90 | 4.30 | 6.10 | 6.30 | 6.50 | 5.80 | 5.60 | significantly superior therapeutic effect |
| benvitimod >2 #>6 # | CC(C)c1c(O)cc(/C=C/c2ccccc2)cc1O [Reference 1#, Benvitimod, reference compound] | 0.00 ± 0.00 | 3.63 ± 0.78 | 7.44 ± 1.07 | 7.19 ± 1.14 | 6.81 ± 1.00 |  |  |  |  |  |  |  |  |
